{"source": "patent US20050154020A1", "about": "“4-Aryl piperidines” (Synaptic Pharmaceutical Corporation, priority 2004, published 2005)", "origin": "cited, not measured here", "key": {"MCH1 [1]": {"target": "T1, MCH1 (Rattus norvegicus, UniProt P97639)", "T1 construct": "from tissue; host or cells: whole living rat (in vivo behavioural model)", "T1 sequence (P97639 whole entry)": "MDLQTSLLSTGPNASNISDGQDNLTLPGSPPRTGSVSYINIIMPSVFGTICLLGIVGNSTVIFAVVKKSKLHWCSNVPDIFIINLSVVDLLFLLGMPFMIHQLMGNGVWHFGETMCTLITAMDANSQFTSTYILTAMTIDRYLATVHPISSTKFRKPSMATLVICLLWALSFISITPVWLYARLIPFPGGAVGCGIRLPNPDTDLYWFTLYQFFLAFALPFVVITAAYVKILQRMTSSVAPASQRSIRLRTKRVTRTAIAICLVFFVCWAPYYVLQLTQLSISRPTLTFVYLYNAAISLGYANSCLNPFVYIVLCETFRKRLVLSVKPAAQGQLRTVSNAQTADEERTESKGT"}, "MCH1 [2]": {"target": "T2, MCH1 (Cavia porcellus, UniProt H0VKT7)", "T2 construct": "from tissue; host or cells: whole living guinea pig (in vivo behavioural model)", "T2 sequence (H0VKT7 1-355)": "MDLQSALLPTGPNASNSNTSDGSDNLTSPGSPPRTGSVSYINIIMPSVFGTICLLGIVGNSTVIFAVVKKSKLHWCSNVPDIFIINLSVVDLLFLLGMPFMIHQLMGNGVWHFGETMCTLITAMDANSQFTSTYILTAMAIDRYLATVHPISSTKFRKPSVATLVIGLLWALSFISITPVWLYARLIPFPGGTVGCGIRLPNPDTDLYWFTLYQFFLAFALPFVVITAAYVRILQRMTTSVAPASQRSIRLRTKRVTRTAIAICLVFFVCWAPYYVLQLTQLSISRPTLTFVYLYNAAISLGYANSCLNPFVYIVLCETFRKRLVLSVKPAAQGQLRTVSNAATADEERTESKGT"}, "MCH1 [3]": {"target": "T1, MCH1", "remark": "listed apart in the source"}}, "data": [{"molecule": "COCC1=C(C(=O)OC)[C@H](c2ccc(F)c(F)c2)N(C(=O)NCCCN2CCC(c3cccc(NC(C)=O)c3)CC2)C(=O)N1", "note": "[SNAP-7941]", "values": [{"measurement": "effect in rat social interaction test (model of depression/anxiety)", "setting": "MCH1 [1]", "result": "effects similar to clinically used antidepressants and anxiolytics"}, {"measurement": "effect in guinea pig maternal-separation vocalization test (model of depression/anxiety)", "setting": "MCH1 [2]", "result": "effects similar to clinically used antidepressants and anxiolytics"}, {"measurement": "effect in rat forced-swim test (model of depression/anxiety)", "setting": "MCH1 [3]", "result": "effects similar to clinically used antidepressants and anxiolytics"}]}]}
